Measured values published in PubChem BioAssay (NCI).
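Following 48 hours of exposure in 96-well plates, responses at five concentrations were used to interpolate endpoints linearly. Here, GI50 denotes the concentration required for 50% inhibition of growth. TGI: total growth inhibition.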

Legend:
Assay in all cases: growth of human tumour cells (NCI), 48 h
[1] = system: IGROV1 ovarian
[2] = system: K-562 leukemia
[3] = system: KM12 colon
[4] = system: MCF7 breast
[5] = system: MDA-MB-435
[6] = system: RPMI-8226 leukemia
[7] = system: SNB-19 CNS
[8] = system: UO-31 renal
[9] = system: HCC-2998 colon
[10] = system: HOP-92 NSCLC

Compound	TGI [1] [µM]	TGI [2] [µM]	TGI [3] [µM]	TGI [4] [µM]	TGI [5] [µM]	TGI [6] [µM]	TGI [7] [µM]	TGI [8] [µM]	TGI [9] [µM]	TGI [10] [µM]	GI50 [9] [µM]	GI50 [10] [µM]	GI50 [1] [µM]	GI50 [2] [µM]	GI50 [3] [µM]	GI50 [4] [µM]	GI50 [6] [µM]	GI50 [8] [µM]	GI50 [5] [µM]
O=C(NNC(=O)c1ccco1)c1ccco1	> 100	> 100	> 100	> 100	> 100	> 100	> 100	> 100	–	–	–	–	–	–	–	–	–	–	–
S=C(NCc1ccccn1)N/N=C/c1ccccn1	–	< 0.0108	> 100	> 100	> 100	< 0.01	28.6	32.6	> 100	–	–	–	–	–	–	–	–	–	–
CNC(=O)[C@H](Cc1ccccc1)NC(=O)N(CCC#N)CCN(C(=O)N[C@@H](Cc1ccccc1)C(=O)OC)c1ccccc1	–	> 100	> 100	> 100	> 100	> 100	> 100	> 100	–	> 100	–	–	–	–	–	–	–	–	–
CSc1c(C(C)=O)c(O)n(-c2ccc(C)cc2)c(=O)c1C#N	> 100	> 100	> 100	> 100	> 100	> 100	> 100	> 100	> 100	–	–	–	–	–	–	–	–	–	–
O=C(/C=C/c1ccc(OCc2ccccc2)cc1)NCc1ccc(C(=O)NCCc2ccccc2)cc1	> 100	–	> 100	> 100	> 100	–	> 100	> 100	> 100	> 100	–	–	–	–	–	–	–	–	–
CC(C)(C)OC(=O)Cn1ncn(NC(=O)Cc2ccccc2)c1=S	> 10	> 10	> 10	> 10	> 10	–	> 10	> 10	> 10	> 10	–	–	–	–	–	–	–	–	–
O=C1Cc2cc3ccccc3nc2-c2ccccc2N1	> 100	> 100	> 100	> 100	> 100	–	> 100	> 100	90.4	> 100	–	–	–	–	–	–	–	–	–
NC(=S)NNCC(=O)CC(O)(C(F)(F)F)C(F)(F)Cl (configuration not stated)	> 100	> 100	> 100	> 100	> 100	> 100	> 100	> 100	–	> 100	–	–	–	–	–	–	–	–	–
OC12CCC3(OC4CCCCO4)c4ccccc4C3C1c1ccccc12 (configuration not stated)	–	> 100	> 100	–	–	> 100	> 100	> 100	–	–	–	–	–	–	–	–	–	–	–
COc1cccc(NC(=O)CC(=O)NN)c1	> 100	> 100	> 100	> 100	> 100	> 100	> 100	> 100	–	> 100	–	–	–	–	–	–	–	–	–
Oc1c(Br)cc2c(c1Br)-c1c(c(O)c3c4c1=NCCC=4C=N3)NCC2	27.4	40.9	27.2	22.2	–	29.8	35.7	39.8	–	35.4	–	–	–	–	–	–	–	–	–
COC1OC2COC(=O)c3cc(O)c(O)c(O)c3-c3c(cc(O)c(O)c3O)C(=O)OC2C(O)C1O (configuration not stated)	> 100	> 100	> 100	> 100	94.8	> 100	> 100	> 100	–	–	–	–	–	–	–	–	–	–	–
C[C@]12CC[C@H]3[C@@H](CC=C4C[C@@H](O)CC[C@@]43C)[C@@H]1C/C(=C\c1cccnc1)[C@@H]2O	> 100	–	> 100	42.5	> 100	> 100	61.5	> 100	–	59.6	–	–	–	–	–	–	–	–	–
Brc1ccc2[nH]c3c(C4=NCCC4)nccc3c2c1	> 78.7	> 41.9	> 100	> 47.6	–	> 36	> 100	37	39.1	> 74.2	–	–	–	–	–	–	–	–	–
[CH3][Sn]([CH3])([CH3])[S]C(=S)N1CCOCC1	8.52	5.84	11.1	0.619	–	2.22	–	> 25.1	15.7	6.48	3.41	1.84	0.69	0.36	2.11	0.0342	0.362	6.24	–
C/C(=C\C(=O)Nc1ccc2n[nH]nc2c1)Nc1ccc2n[nH]nc2c1	> 100	> 100	> 100	–	–	> 100	> 100	> 100	> 100	> 100	–	–	–	–	–	–	–	–	–
CCOC(=O)C1=C(O)CC(=O)N=C1N1CCCC1	> 100	> 100	> 100	–	> 100	> 100	> 100	> 100	> 100	> 100	–	–	–	–	–	–	–	–	–
ClC1=NSSC1(Cl)Cl	> 100	24	> 100	> 100	> 100	56	> 100	78	> 100	–	–	–	–	–	–	–	–	–	–

Compound	TGI [1] [µM]	TGI [2] [µM]	TGI [3] [µM]	TGI [4] [µM]	TGI [5] [µM]	TGI [6] [µM]	TGI [7] [µM]	TGI [8] [µM]	TGI [9] [µM]	TGI [10] [µM]	GI50 [9] [µM]	GI50 [10] [µM]	GI50 [1] [µM]	GI50 [2] [µM]	GI50 [3] [µM]	GI50 [4] [µM]	GI50 [6] [µM]	GI50 [8] [µM]	GI50 [5] [µM]
COC(=O)c1ccccc1CC1Cc2c(C)ccc(C)c2C1=O (configuration not stated)	> 100	> 100	76.1	30	59.7	–	> 100	> 100	> 100	54.4	–	–	–	–	–	–	–	–	–
Nc1nc(Cl)c2ncn(CCCC(c3ccccc3)P(=O)(O)O)c2n1 (configuration not stated)	> 100	> 100	> 100	–	–	> 100	> 100	> 100	> 100	> 100	–	–	–	–	–	–	–	–	–
COc1ccc(OC)c2c(C(C)=O)cccc12	> 100	> 100	> 100	> 100	–	> 100	> 100	> 100	> 100	–	–	–	–	–	–	–	–	–	–
c1ccc(C(Oc2noc3ccccc23)c2ccccc2)cc1	> 100	> 100	> 100	> 100	75.4	–	> 100	> 100	44.7	> 100	–	–	–	–	–	–	–	–	–
Cc1c2cc[n+](Cc3ccc(I)cc3)cc2c(C)c2c1[nH]c1ccccc12	> 25	10.7	1.83	3.06	–	2.4	9.55	15.8	5.25	3.3	–	–	–	–	–	–	–	–	–
Cc1ccc(C)c2c1C1CCCCC3(OCCCO3)C21O (configuration not stated)	> 100	> 100	> 100	–	–	> 100	> 100	> 100	> 100	–	–	–	–	–	–	–	–	–	–
OCCc1ccsc1-c1sc(-c2cc(CCO)c(-c3sc(-c4cc(CCO)c(-c5sccc5CCO)s4)cc3CCO)s2)cc1CCO	2.6	–	1.9	1.95	3.39	2.32	3.01	2.7	2.95	2.89	–	–	–	–	–	–	–	–	–
Nc1nc(SCc2ccccc2Cl)c2ncn(C3OC(CO)C(O)C3O)c2n1 (configuration not stated)	> 100	> 100	> 100	–	–	> 100	> 100	> 100	> 100	> 100	–	–	–	–	–	–	–	–	–
Cc1ccc(S(=O)(=O)OC[C@@]2(C)CC[C@]3(C)CC[C@]4(C)C(=C3C2)C=C[C@@H]2[C@@]3(C)CCCNC(C)(C)[C@@H]3CC[C@]24C)cc1	–	–	3.57	–	3.07	4.63	–	2.85	–	2.97	–	1.45	–	–	1.86	–	2.12	1.46	1.64
Cc1ccc(S(=O)(=O)N/N=C2\C=CC3(CC2)C(=O)N(I)c2ccccc23)cc1 (configuration not stated)	–	> 100	> 100	–	> 100	> 100	> 100	> 100	> 100	> 100	–	–	–	–	–	–	–	–	–
COc1ccc(-c2nc3ccccc3c(=O)[nH]2)cc1	> 100	> 100	> 100	> 100	> 100	> 100	> 100	> 100	–	> 100	–	–	–	–	–	–	–	–	–
C[N+](C)(CCNc1ccc(NCC[N+](C)(C)Cc2ccc([N+](=O)[O-])cc2)c2c1C(=O)c1c(O)ccc(O)c1C2=O)Cc1ccc([N+](=O)[O-])cc1	> 50	> 5	14.5	–	> 50	> 50	–	> 50	> 50	–	–	–	–	–	–	–	–	–	–
CNC(=S)N/N=C/C(C)=N/NC(=S)NC	–	–	> 100	–	–	> 100	> 100	> 100	> 100	–	–	–	–	–	–	–	–	–	–
COc1cc2c(c(OC)c1OC)C(=O)c1c(O)cc(C)c(OC)c1C2=O	> 100	–	> 100	> 100	> 100	> 100	> 100	> 100	> 100	> 100	–	–	–	–	–	–	–	–	–
Cc1c(C#N)c2nnn(-c3cccc(Cl)c3)c(=O)n2c1-c1ccccc1	> 100	4.03	14.9	35.4	–	2.61	> 100	> 100	18.2	> 100	–	–	–	–	–	–	–	–	–
CCCCCCCCCCCC1N=C(N)N=C(N)N1c1cccc(Br)c1 (configuration not stated)	2.58	–	–	–	1.79	4.21	–	13	2.42	4.34	1.16	1.51	1.14	–	–	–	1.68	4.89	0.523
NC(CCC(=O)c1ccccn1)C(=O)O (configuration not stated)	> 100	–	> 100	> 100	> 100	> 100	> 100	> 100	> 100	> 100	–	–	–	–	–	–	–	–	–
